Laboratory results as given in patent US20230391781A1, “MALT1 MODULATORS AND USES THEREOF” (Rheos Medicines, Inc., priority 2020, published 2023).
Structures can show the parent of a compound that is named as a salt. Where two headings read alike, the source gives them in different places.

Legend:
[1] = test system: IL-2 in Jurkat (ATCC, clone E6.1) cells stimulated with anti-CD3/28/2; test: Jurkat IL-2 Assay; assay type: cell-based; conditions: Homo sapiens
Experimental: Inhibition was determined in a cell-based assay using Jurkat (ATCC, clone E6.1), an immortalized T-cell line, exposed to a dose response of compound and assessed for viability, and Il-2 inhibition by ELISA. Cells were cultured in RPMI/10% FBS (Invitrogen 11875093, Atlanta Biologicals S12450H), maintained below 3E6/mL and only used in assays while below passage 25. Compounds were stamped by ECHO onto 384w plates (PerkinElmer Culturplate, 6007680). The cells were plated in fresh media on top of compound and incubated for 30 minutes before stimulation with soluble anti-CD3/28/2 (Stemcell, 10970) for 24 hours. Supernatant was collected and assessed for Il-2 (MSD, 384w, L21SA-1). To assess viability of cells treated with compound, cells were lysed with CTG reagent (Promega, G7570), and measured by luminometer. […] IC50s calculated using 4-parameter fit in GraphPad Prism.
In this table, “A” indicates IC50 of less than 0.1 μM; “B” indicates IC50 from 0.1 μM up to 1 μM; and “C” indicates IC50 of greater than 1 μM. “N/A” indicates not tested. For a compound that was tested in more than one experiment, the result shown represents the mean value.

full length MALT1 = full length MALT1 (Homo sapiens (Human), UniProt Q9UDY8); test: MALT1 Biochemical Assay; conditions: 15 nM enzyme, 30 μM peptide substrate Ac-Leu-Arg-Ser-Arg-Rh110-dPro, 30 min pre-incubation, 60 min reaction; mean value if tested more than once
Experimental: Inhibitor potency was evaluated by measuring enzymatic activity of full length MALT1 at varying concentrations of compound. The enzymatic assay consists of a single substrate reaction that monitors the release of a fluorescent dye upon cleavage of the peptide substrate. […] The assay buffer consists of 50 mM Hepes, pH 7.5, 0.8 M sodium citrate, 1 mM DTT, 0.004% tween-20, and 0.005% bovine serum albumin (BSA). […] The reaction was quenched after 60 minutes with the addition of iodoacetate at a final concentration of 10 mM. Total fluorescence was measured using an Envision (PerkinElmer) with fluorescence excitation at 485 nm and emission at […].
For potency determination, 1 μL of serially diluted compound (in 100% DMSO) was pre-incubated with 40 μL of enzyme for 30 minutes. The reaction was initiated with the addition of 10 μL of peptide substrate. The relative fluorescence units were transformed to percent inhibition by using 0% and 100% inhibition controls as reference. […] IC50 values were calculated by fitting the concentration-response curves to a four-parameter logistic equation in GraphPad Prism.

[2] = IL-2 inhibition, Jurkat cells, 30 min compound then anti-CD3/28/2 stimulation for 24 hours, mean value if tested more than once, read-out: IC50

Chain of full length MALT1 (Q9UDY8 whole entry): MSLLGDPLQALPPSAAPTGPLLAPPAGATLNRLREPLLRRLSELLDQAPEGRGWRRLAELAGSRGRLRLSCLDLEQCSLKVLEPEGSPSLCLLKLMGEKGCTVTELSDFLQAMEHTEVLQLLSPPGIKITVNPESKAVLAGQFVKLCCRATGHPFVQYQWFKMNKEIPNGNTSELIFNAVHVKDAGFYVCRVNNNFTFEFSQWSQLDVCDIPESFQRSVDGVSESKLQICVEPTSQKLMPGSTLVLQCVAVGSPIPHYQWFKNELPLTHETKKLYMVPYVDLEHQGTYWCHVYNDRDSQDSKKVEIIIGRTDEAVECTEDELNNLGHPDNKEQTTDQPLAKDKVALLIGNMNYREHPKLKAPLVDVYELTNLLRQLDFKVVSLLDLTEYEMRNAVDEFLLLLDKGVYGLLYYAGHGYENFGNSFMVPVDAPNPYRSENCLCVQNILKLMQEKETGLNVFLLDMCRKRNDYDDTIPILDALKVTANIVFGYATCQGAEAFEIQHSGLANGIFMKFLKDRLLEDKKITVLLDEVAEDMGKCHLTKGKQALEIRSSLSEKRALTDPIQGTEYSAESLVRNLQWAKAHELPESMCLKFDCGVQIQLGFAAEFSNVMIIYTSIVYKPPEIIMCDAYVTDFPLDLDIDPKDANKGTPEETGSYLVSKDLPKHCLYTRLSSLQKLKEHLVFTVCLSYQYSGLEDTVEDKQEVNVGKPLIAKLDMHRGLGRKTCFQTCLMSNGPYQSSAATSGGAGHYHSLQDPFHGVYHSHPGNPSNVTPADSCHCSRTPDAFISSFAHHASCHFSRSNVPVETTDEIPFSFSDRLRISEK

SMILES | IC50 [1, 2] | IC50 (full length MALT1) | IC50 ([1]; Jurkat)
CO[C@@H](C)c1c(Nc2ccc([C@@H](N(C)C(=O)C3CCS(=O)(=O)CC3)C(F)(F)F)cc2)cnc2nc(Cl)nn12 [Compound 1.26, N-[(1R)-1-[4-({2-chloro-7-[(1S)-1-methoxyethyl]-[1,2,4]triazolo[1,5-a]pyrimidin-6-yl}amino)phenyl]-2,2,2-trifluoroethyl]-N-methyl-1,1-dioxo-1λ^6-thiane-4-carboxamide] | > 1000 nM | > 1000 nM | 
CO[C@H](C)c1c(Nc2ccc([C@@H](N(C)C(=O)C3CCS(=O)(=O)CC3)C(F)(F)F)cc2)cnc2nc(Cl)nn12 [Compound 1.27, N-[(1R)-1-[4-({2-chloro-7-[(1R)-1-methoxyethyl]-[1,2,4]triazolo[1,5-a]pyrimidin-6-yl}amino)phenyl]-2,2,2-trifluoroethyl]-N-methyl-1,1-dioxo-1λ^6-thiane-4-carboxamide] | > 1000 nM | > 1000 nM | 
CO[C@@H](C)c1c(Nc2ccc([C@H](N(C)C(=O)C3CCC3)C(F)(F)F)c(C)c2)cnc2nc(Cl)nn12 [Compound 1.28, N-[(1S)-1-[4-({2-chloro-7-[(1S)-1-methoxyethyl]-[1,2,4]triazolo[1,5-a]pyrimidin-6-yl}amino)-2-methylphenyl]-2,2,2-trifluoroethyl]-N-methylcyclobutanecarboxamide] | > 1000 nM | > 1000 nM | 
CO[C@@H](C)c1c(Nc2ccc([C@H](N(C)C(=O)C3CC3)C(F)(F)F)c(C)c2)cnc2nc(Cl)nn12 [Compound 1.29, N-[(1S)-1-[4-({2-chloro-7-[(1S)-1-methoxyethyl]-[1,2,4]triazolo[1,5-a]pyrimidin-6-yl}amino)-2-methylphenyl]-2,2,2-trifluoroethyl]-N-methylcyclopropanecarboxamide] | > 1000 nM | > 1000 nM | 
CO[C@@H](C)c1c(Nc2ccc([C@H](N(C)C(=O)C3CCS(=O)(=O)CC3)C(F)(F)F)c(C)c2)cnc2nc(Cl)nn12 [Compound 1.30, N-[(1S)-1-[4-({2-chloro-7-[(1S)-1-methoxyethyl]-[1,2,4]triazolo[1,5-a]pyrimidin-6-yl}amino)-2-methylphenyl]-2,2,2-trifluoroethyl]-N-methyl-1,1-dioxo-1λ^6-thiane-4-carboxamide] | > 1000 nM | 100 to 1000 nM | 
CO[C@@H](C)c1c(Nc2ccc([C@H](N(C)C(=O)C3CCC3)C(F)(F)F)cc2C)cnc2nc(Cl)nn12 [Compound 1.31, N-[(1S)-1-[4-({2-chloro-7-[(1S)-1-methoxyethyl]-[1,2,4]triazolo[1,5-a]pyrimidin-6-yl}amino)-3-methylphenyl]-2,2,2-trifluoroethyl]-N-methylcyclobutanecarboxamide] | > 1000 nM | > 1000 nM | 
CO[C@@H](C)c1c(Nc2ccc([C@H](N(C)C(=O)C3CC3)C(F)(F)F)cc2C)cnc2nc(Cl)nn12 [Compound 1.32, N-[(1S)-1-[4-({2-chloro-7-[(1S)-1-methoxyethyl]-[1,2,4]triazolo[1,5-a]pyrimidin-6-yl}amino)-3-methylphenyl]-2,2,2-trifluoroethyl]-N-methylcyclopropanecarboxamide] | > 1000 nM | 100 to 1000 nM | 
CO[C@@H](C)c1c(Nc2ccc([C@H](N(C)C(=O)C3CCS(=O)(=O)CC3)C(F)(F)F)cc2C)cnc2nc(Cl)nn12 [Compound 1.33, N-[(1S)-1-[4-({2-chloro-7-[(1S)-1-methoxyethyl]-[1,2,4]triazolo[1,5-a]pyrimidin-6-yl}amino)-3-methylphenyl]-2,2,2-trifluoroethyl]-N-methyl-1,1-dioxo-1λ^6-thiane-4-carboxamide] | > 1000 nM | 100 to 1000 nM | 
CO[C@@H](C)c1c(Nc2ccc([C@H](N(C)C(=O)C3CCNCC3)C(F)(F)F)cc2)cnc2nc(Cl)nn12 [Compound 2.1, N—((S)-1-(4-((2-chloro-7-((S)-1-methoxyethyl)-[1,2,4]triazolo[1,5-a]pyrimidin-6-yl)amino)phenyl)-2,2,2-trifluoroethyl)-N-methylpiperidine-4-carboxamide trifluoroacetate] |  | 100 to 1000 nM | 100 to 1000 nM

More lines, main results first:

IC50 [1, 2] | IC50 (full length MALT1) | SMILES | IC50 ([1]; Jurkat)
> 1000 nM | 100 to 1000 nM | CO[C@@H](C)c1c(Nc2ccc([C@H](N(C)C(=O)C3CCCNC3)C(F)(F)F)cc2)cnc2nc(Cl)nn12 (stereo partly drawn) [Compound 2.2, N-[(1S)-1-[4-({2-chloro-7-[(1S)-1-methoxyethyl]-[1,2,4]triazolo[1,5-a]pyrimidin-6-yl}amino)phenyl]-2,2,2-trifluoroethyl]-N-methylpiperidine-3-carboxamide] | 
100 to 1000 nM | 100 to 1000 nM | CO[C@@H](C)c1c(Nc2ccc([C@H](N(C)C(=O)C3CCNC3)C(F)(F)F)cc2)cnc2nc(Cl)nn12 (stereo partly drawn) [Compound 2.3, N—((S)-1-(4-((2-chloro-7-((S)-1-methoxyethyl)-[1,2,4]triazolo[1,5-a]pyrimidin-6-yl)amino)phenyl)-2,2,2-trifluoroethyl)-N-methylpyrrolidine-3-carboxamide hydrochloride] | 
100 to 1000 nM | < 100 nM | CO[C@@H](C)c1c(Nc2ccc([C@H](N(C)C(=O)C3CCC(CN)CC3)C(F)(F)F)cc2)cnc2nc(Cl)nn12 (stereo partly drawn) [Compound 2.4, 4-(aminomethyl)-N-[(1S)-1-[4-({2-chloro-7-[(1S)-1-methoxyethyl]-[1,2,4]triazolo[1,5-a]pyrimidin-6-yl}amino)phenyl]-2,2,2-trifluoroethyl]-N-methylcyclohexane-1-carboxamide; Formic Acid] | 
100 to 1000 nM | < 100 nM | CO[C@@H](C)c1c(Nc2ccc([C@H](N(C)C(=O)C3CCN(S(=O)(=O)C(C)C)CC3)C(F)(F)F)cc2)cnc2nc(Cl)nn12 [Compound 3.2, N-[(1S)-1-[4-({2-chloro-7-[(1S)-1-methoxyethyl]-[1,2,4]triazolo[1,5-a]pyrimidin-6-yl}amino)phenyl]-2,2,2-trifluoroethyl]-N-methyl-1-(propane-2-sulfonyl)piperidine-4-carboxamide] | 
100 to 1000 nM | < 100 nM | COC(=O)N1CCC(C(=O)N(C)[C@@H](c2ccc(Nc3cnc4nc(Cl)nn4c3[C@H](C)OC)cc2)C(F)(F)F)CC1 [Compound 3.3, methyl 4-{[(1S)-1-[4-({2-chloro-7-[(1S)-1-methoxyethyl]-[1,2,4]triazolo[1,5-a]pyrimidin-6-yl}amino)phenyl]-2,2,2-trifluoroethyl](methyl)carbamoyl}piperidine-1-carboxylate] | 
100 to 1000 nM | < 100 nM | CO[C@@H](C)c1c(Nc2ccc([C@H](N(C)C(=O)C3CCCN(C(C)=O)C3)C(F)(F)F)cc2)cnc2nc(Cl)nn12 (stereo partly drawn) [Compound 3.5, 1-acetyl-N-[(1S)-1-[4-({2-chloro-7-[(1S)-1-methoxyethyl]-[1,2,4]triazolo[1,5-a]pyrimidin-6-yl}amino)phenyl]-2,2,2-trifluoroethyl]-N-methylpiperidine-3-carboxamide] | 
> 1000 nM | 100 to 1000 nM | CNC(=O)N1CCCC(C(=O)N(C)[C@@H](c2ccc(Nc3cnc4nc(Cl)nn4c3[C@H](C)OC)cc2)C(F)(F)F)C1 (stereo partly drawn) [Compound 3.6, N3-[(1S)-1-[4-({2-chloro-7-[(1S)-1-methoxyethyl]-[1,2,4]triazolo[1,5-a]pyrimidin-6-yl}amino)phenyl]-2,2,2-trifluoroethyl]-N1,N3-dimethylpiperidine 1,3-dicarboxamide] | 
> 1000 nM | 100 to 1000 nM | CO[C@@H](C)c1c(Nc2ccc([C@H](N(C)C(=O)C3CCCN(S(C)(=O)=O)C3)C(F)(F)F)cc2)cnc2nc(Cl)nn12 (stereo partly drawn) [Compound 3.7, N-[(1S)-1-[4-({2-chloro-7-[(1S)-1-methoxyethyl]-[1,2,4]triazolo[1,5-a]pyrimidin-6-yl}amino)phenyl]-2,2,2-trifluoroethyl]-1-methanesulfonyl-N-methylpiperidine-3-carboxamide] | 
> 1000 nM | 100 to 1000 nM | CO[C@@H](C)c1c(Nc2ccc([C@H](N(C)C(=O)C3CCN(C(C)=O)C3)C(F)(F)F)cc2)cnc2nc(Cl)nn12 (stereo partly drawn) [Compound 3.8, 1-acetyl-N-[(1S)-1-[4-({2-chloro-7-[(1S)-1-methoxyethyl]-[1,2,4]triazolo[1,5-a]pyrimidin-6-yl}amino)phenyl]-2,2,2-trifluoroethyl]-N-methylpyrrolidine-3-carboxamide] | 
